Results: patent US20220202801A1, “USE OF COMPOUND IN PREPARATION OF DRUG FOR TREATING ATHEROSCLEROSIS” (GenEros Biopharma Ltd., priority 2019, published 2022)

Columns and labels:
[1] = test system: ApoE knockout mice; experiment: Blood lipid metabolism TG, TCHO, HDL-c, LDL-c (Example 2); type: in vivo
Source text: (§1) Methods: A total of 130 SPF grade C57BL/6 ApoE −/− model male mice aged 8 weeks were purchased from Charles River Laboratories (Beijing, China) (animal license number: SCXK (Beijing) 2016-0001, animal qualification certificate No.: 11400700331337). After one week of acclimatization in a SPF-grade animal facility, the animals with less weights were discarded and the rest was randomly divided into 11 groups, with 8 animals in each group. Except for the healthy control group, the rest were fed with 10% high-fat food (the first day of the high-fat diet was recorded as D1). Starting from the 8th week of the high-fat diet, each group of animals was orally given solvents or corresponding drugs, and the volume of administration was 10 ml/kg, once a day for 8 weeks. Animals were observed and administered by gavage once a day and the body weight were measured once a week for 56 days. […] The store solution of the test samples was dissolved in dimethyl sulfoxide solution and prepared with 30% PEG300.
At the end of the experiment, the animals were euthanized by inhalation of carbon dioxide. Blood was taken from the heart, and centrifuged at 3000 r/min at a low temperature centrifuge for 10 min to separate the serum. The levels of total cholesterol TC, triglyceride TG, high-density lipoprotein HDL-C, and low-density lipoprotein LDL-C were measured, and the remaining serum was stored in a refrigerator at −80° C.
Before the start of the experiment, animal blood samples were analyzed for blood lipid metabolism, including conventional triglyceride (TG), total cholesterol (TCHO), high-density lipoprotein (HDL-c) and low-density lipoprotein (LDL-c). After high-fat or ordinary food feeding for 8 weeks, the blood lipid levels were measured again. After the drug treatment was started, blood lipid measurements were performed every four weeks until the end of the experiment.

[2] = test system: atherosclerosis model induced by high-fat diet in ApoE knockout mice; experiment: Ratio of atherosclerotic plaque area to total inner wall area of the aorta (En-Face, oil red; Example 2); type: in vivo; conditions: for Mean of Plaque Ratio (plaque area to total inner wall area of aorta): high-fat diet; for symptoms of atherosclerosis under therapeutic intervention (mainly plaque area ratio): different doses, Example 2
Source text: as §1
Immediately after blood was taken from the heart, it was perfused through the left ventricle with 20 ml of normal saline. After bloodletting, the heart and aorta (from the aortic arch to the iliac artery) were isolated. The isolated artery was cut longitudinally from the aortic arch to the iliac artery, fixed in 4% paraformaldehyde for 30 minutes, synchronized with 60% isopropanol for 10 minutes, stained in 60% oil red for 30 minutes, and washed by 60% isopropanol 3 times, 5 minutes each time. Finally, the colored aorta was washed with deionized water and photographed. The proportion of the red plaque area was measured by Image Pro Plus 6.0 (Media Cybernetics, MD, US). The heart samples were fixed in 4% paraformaldehyde solution overnight and then placed in sucrose solution for dehydration. Then, it was embedded with OCT (Sakura, Japan) under a stereo microscope and made into 7 μm frozen sections. After HE staining, the slices were used for routine pathological examination. The outflow tract images were collected under an optical microscope at 4* magnification, and 4*, 10*, 20* and 40* magnification eyepieces were used for high-quality morphological observation. The detection standard referred to the histological classification standard of human atherosclerosis disease.
Evaluate the effect of different therapeutic drugs by the ratio of the area of atherosclerotic plaque to the total area of the inner wall of the aortic vessel (En-Face)
We adopted the widely accepted standard for the severity of arteriosclerosis in animal models, and analyzed the area of all plaques on the inner wall of the aorta. […] FIGS. 46A and 46B are histograms of the ratios of plaque area on the inner wall of the aorta in each treatment group. The values in FIGS. 46A and 46B are the ratios of plaques to the total area of the inner wall in each group, and the error is standard error±SEM. The statistical significance analysis is as follows: ***P<0.001 compared with the normal control group; #P<0.05 compared with the vehicle group; ##P<0.01, ###P<0.001, compared with the vehicle group through one-way ANOVA Dunnett's test; & represents P<0.05, compared with the vehicle group by t test.

| SMILES | effect on high-density lipoprotein (HDL-c) level compared with the vehicle group [1] | effect on low-density lipoprotein (LDL-c) level compared with the vehicle group [1] | effect on total cholesterol (TCHO) level compared with the vehicle group [1] | effect on triglyceride (TG) level compared with the vehicle group [1] | Mean of Plaque Ratio (plaque area to total inner wall area of aorta) ([2]; 5 mpk PO QD 8 weeks) | symptoms of atherosclerosis under therapeutic intervention (mainly plaque area ratio) [2] | Mean of Plaque Ratio (plaque area to total inner wall area of aorta) ([2]; 10 mpk PO QD 8 weeks) |
| --- | --- | --- | --- | --- | --- | --- | --- |
| Cc1ccc(CC(=O)N2CCC(n3c(=O)[nH]c4ccccc43)CC2)cc1 [Sample X7, 1-(1-(2-(p-tolyl)acetyl)piperidin-4-yl)-1H-benzo[d]imidazole-2(3H)-one] | no obvious effect | significantly reduce | significantly reduce | significantly reduce | 9.00% | significantly alleviate the symptoms of atherosclerosis |  |
| O=C(Cc1ccc(C(F)(F)F)cc1)N1CCC(n2c(=O)[nH]c3ccccc32)CC1 [Sample X8, 1-(1-(2-(4-(trifluoromethyl)phenyl)acetyl)piperidin-4-yl)-1H-benzo[d]imidazole-2(3H)-one] | no obvious effect | significantly reduce | significantly reduce | significantly reduce | 9.02% | significantly alleviate the symptoms of atherosclerosis | 6.93% |
